# Laboratory results: ChEMBL document CHEMBL5634167, “Insights into the structure-activity relationship of the anticancer compound ZJ-101: A role played by the amide moiety” (Bioorg Med Chem Lett, 2024)
# Experiments:
# Assay type in all cases: functional, cell-based
# HCT-116 = assay: Antiproliferative activity against human HCT-116 cells assessed inhibition of cell growth incubated for 72 hrs by alamar blue assay; conditions: HCT-116, 72 h
# MCF7 = assay: Antiproliferative activity against human MCF7 cells assessed inhibition of cell growth incubated for 72 hrs by alamar blue assay; conditions: MCF7, 72 h
# MDA-MB-231 = assay: Antiproliferative activity against human MDA-MB-231 cells assessed inhibition of cell growth incubated for 72 hrs by alamar blue assay; conditions: MDA-MB-231, 72 h
Structure (SMILES),IC50 (HCT-116),IC50 (MCF7),IC50 (MDA-MB-231)
CC(=O)N[C@H](C)[C@@H](O)[C@@H](C)[C@@H]1OC(=O)/C=C/C=C(C)\C=C\[C@]2(C)CCC=C[C@@H]2/C=C(C)/C=C/[C@H]1C,88.2 nM,,
CC1=C/C=C/C(=O)O[C@@H]([C@H](C)[C@H](O)[C@@H](C)NS(C)(=O)=O)[C@H](C)/C=C/C(C)=C/[C@H]2C=CCC[C@@]2(C)\C=C\1,3360 nM,1120 nM,1010 nM
COC(=O)N[C@H](C)[C@@H](O)[C@@H](C)[C@@H]1OC(=O)/C=C/C=C(C)\C=C\[C@]2(C)CCC=C[C@@H]2/C=C(C)/C=C/[C@H]1C,> 5000 nM,> 2000 nM,> 2000 nM
CNC(=O)N[C@H](C)[C@@H](O)[C@@H](C)[C@@H]1OC(=O)/C=C/C=C(C)\C=C\[C@]2(C)CCC=C[C@@H]2/C=C(C)/C=C/[C@H]1C,136 nM,88.5 nM,104 nM
CC1=C/C=C/C(=O)O[C@@H]([C@H](C)[C@H](O)[C@@H](C)NC(=O)C(C)C)[C@H](C)/C=C/C(C)=C/[C@H]2C=CCC[C@@]2(C)\C=C\1,47.5 nM,41.4 nM,64 nM
